According to patent publication US20240124399A1, “NOVEL INDOLE DERIVATIVE, AND USE THEREOF FOR TREATING DISEASES RELATED TO ADVANCED GLYCATION END PRODUCTS” (METACEN THERAPEUTICS, priority 2021, published 2024):

Key:
[1] = Methylglyoxal (MGO) trapping ability: fluorescence intensity of reaction product; type: biochemical; details: compound 1.0 mM in MGO+PBS pH 7.4, 37° C., 1 day; ex 355 nm / em 460 nm; 10×10^3 or more = ability to trap MGO
Protocol: Methylglyoxal (MGO) is a main precursor of advanced glycation end products that cause complications due to diabetes mellitus. Successful trapping of methylglyoxal (MGO) can inhibit the production of advanced glycation end products. Therefore, the objective of this experimental example was to confirm whether the compound of the present invention has the ability to trap methylglyoxal (MGO), a precursor before the production of advanced glycation end products.
A mixture was prepared by adding methylglyoxal (MGO) to phosphate buffered saline (PBS, Cat no. 10010023, pH 7.4). The mixture (MGO+PBS) was treated with the compound of the above example at a concentration of 1.0 mM and then cultured at 37° C. for 1 day. The fluorescence intensity of the reaction product was measured at an excitation wavelength of 355 nm and an emission wavelength of 460 nm using a VICTOR™X3 multilabel plate reader.
The higher the fluorescence intensity measured from the reaction product, the higher the ability of the compound to trap methylglyoxal. In addition, in this experimental example, when the fluorescence intensity was 10×10^3 or more, it was determined that the compound had the ability to trap methylglyoxal.

[2] = Methylglyoxal (MGO) trapping ability: free MGO concentration by HPLC; type: biochemical; details: for MGO concentration on day 1 (free MGO) / MGO concentration on day 7 (free MGO): compound 1:1 with MGO in PBS pH 7.4, 37° C.; for MGO concentration on day 1 (free MGO): day 1, HPLC; for MGO concentration on day 7 (free MGO): day 7, HPLC
Protocol: The objective of this experimental example was to confirm whether the compound of the present invention has the ability to trap methylglyoxal (MGO) by analyzing the concentration of free methylglyoxal (MGO) by high performance liquid chromatography (HPLC).
Specifically, a mixture was prepared by adding methylglyoxal (MGO) to phosphate buffered saline (PBS, Cat no. 10010023, pH 7.4). […]

SMILES | Fluorescence intensity on day 1 (×10^3) [1] | MGO concentration on day 1 (free MGO) [2] [µM] | MGO concentration on day 7 (free MGO) [2] [µM] | concentration of free methylglyoxal relative to the control group, day 1 ([2]; day 1 after incubation, control group PBS+MGO) | concentration of free methylglyoxal relative to the control group, day 7 ([2]; day 7 after incubation, control group PBS+MGO)
CCCC(=O)OC[C@@H](N)Cc1c[nH]c2ccc(OC(=O)CCC)cc12 [Compound 8, (S)-2-amino-3-(5-(butyryloxy)-1H-indol-3-yl)propyl butyrate] | 21.74 ± 0.50 ×10^3 | 501.09 | 412.65 |  | 
CCCC(=O)N[C@H](CO)Cc1c[nH]c2ccc(OC(=O)CCC)cc12 [Compound 9, (S)-3-(2-butyramido-3-hydroxypropyl)-1H-indol-5-yl butyrate] | 0.75 ± 0.30 ×10^3 | 551.993 | 403.462 |  | 
NCCCCNCCCNC(=O)OC[C@@H](N)Cc1c[nH]c2ccc(O)cc12 [Compound 10, (S)-2-amino-3-(5-hydroxy-1H-indol-3-yl)propyl (3-((4-aminobutyl)amino)propyl)carbamate] | 223.01 ± 3.74 ×10^3 | 444.11 | 269.28 | about 12% | about 38%
